One experiment concerns the target T1, ASK2 (Homo sapiens, UniProt O95382).
T1 construct: purchased DiscoveRx (Fremont, CA)
Kind of experiment: KinomeScan. The note with it: read-out: % Control. The experiment is classed as binding.

The next experiment addresses T2, ERK2 (Homo sapiens, UniProt P28482).
T2 construct: purchased DiscoveRx (Fremont, CA)
Kind of experiment: KinomeScan. It is filed as binding. The note with it: read-out: % Control.

The next experiment concerns the target T3, FLT3(N841I) (Homo sapiens, UniProt P36888, N841I).
T3 construct: purchased DiscoveRx (Fremont, CA)
The experiment is described as follows: KinomeScan. The experiment is classed as binding. The note with it: read-out: % Control.

The target of a further experiment is T4, IRAK1 (Homo sapiens, UniProt P51617).
T4 construct: purchased DiscoveRx (Fremont, CA)
T4 sequence (P51617 whole entry): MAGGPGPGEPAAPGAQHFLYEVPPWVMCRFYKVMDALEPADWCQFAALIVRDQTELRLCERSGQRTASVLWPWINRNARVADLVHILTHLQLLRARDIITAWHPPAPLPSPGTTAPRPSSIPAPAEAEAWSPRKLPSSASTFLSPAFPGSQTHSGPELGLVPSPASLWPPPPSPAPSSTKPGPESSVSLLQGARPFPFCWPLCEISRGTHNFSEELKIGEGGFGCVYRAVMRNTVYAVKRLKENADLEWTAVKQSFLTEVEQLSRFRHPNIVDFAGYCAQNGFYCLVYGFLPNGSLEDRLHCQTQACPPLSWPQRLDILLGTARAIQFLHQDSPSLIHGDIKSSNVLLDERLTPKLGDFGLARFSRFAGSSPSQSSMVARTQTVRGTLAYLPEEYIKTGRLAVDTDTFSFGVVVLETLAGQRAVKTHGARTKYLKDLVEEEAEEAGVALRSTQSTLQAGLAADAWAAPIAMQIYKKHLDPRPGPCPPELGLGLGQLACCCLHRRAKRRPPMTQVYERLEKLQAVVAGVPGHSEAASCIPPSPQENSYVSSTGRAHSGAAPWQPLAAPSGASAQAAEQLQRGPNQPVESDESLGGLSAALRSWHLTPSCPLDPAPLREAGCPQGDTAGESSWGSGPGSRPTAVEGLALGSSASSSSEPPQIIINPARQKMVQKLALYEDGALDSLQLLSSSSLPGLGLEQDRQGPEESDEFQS
Kind of experiment: KinomeScan. The experiment is classed as binding. The note with it: read-out: % Control.

In another experiment the target is T5, LKB1 (Homo sapiens, UniProt Q15831).
T5 construct: purchased DiscoveRx
T5 sequence (Q15831 whole entry): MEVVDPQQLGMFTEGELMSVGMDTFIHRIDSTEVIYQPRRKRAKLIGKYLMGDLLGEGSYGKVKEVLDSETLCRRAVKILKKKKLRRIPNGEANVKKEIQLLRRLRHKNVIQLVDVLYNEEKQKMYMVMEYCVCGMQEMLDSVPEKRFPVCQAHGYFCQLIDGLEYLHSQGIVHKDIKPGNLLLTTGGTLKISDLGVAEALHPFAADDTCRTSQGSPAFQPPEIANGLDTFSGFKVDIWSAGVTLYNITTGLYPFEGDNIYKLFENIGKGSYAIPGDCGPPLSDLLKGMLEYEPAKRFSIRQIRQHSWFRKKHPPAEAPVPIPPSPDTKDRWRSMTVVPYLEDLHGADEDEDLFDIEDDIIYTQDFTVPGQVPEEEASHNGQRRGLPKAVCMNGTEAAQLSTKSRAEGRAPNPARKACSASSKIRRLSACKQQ
Kind of experiment: KinomeScan. The experiment is classed as binding. The note with it: read-out: % Control.

The target in another experiment is T6, PIK3CA (Homo sapiens, UniProt P42336).
T6 construct: purchased DiscoveRx (Fremont, CA)
T6 sequence (P42336 whole entry): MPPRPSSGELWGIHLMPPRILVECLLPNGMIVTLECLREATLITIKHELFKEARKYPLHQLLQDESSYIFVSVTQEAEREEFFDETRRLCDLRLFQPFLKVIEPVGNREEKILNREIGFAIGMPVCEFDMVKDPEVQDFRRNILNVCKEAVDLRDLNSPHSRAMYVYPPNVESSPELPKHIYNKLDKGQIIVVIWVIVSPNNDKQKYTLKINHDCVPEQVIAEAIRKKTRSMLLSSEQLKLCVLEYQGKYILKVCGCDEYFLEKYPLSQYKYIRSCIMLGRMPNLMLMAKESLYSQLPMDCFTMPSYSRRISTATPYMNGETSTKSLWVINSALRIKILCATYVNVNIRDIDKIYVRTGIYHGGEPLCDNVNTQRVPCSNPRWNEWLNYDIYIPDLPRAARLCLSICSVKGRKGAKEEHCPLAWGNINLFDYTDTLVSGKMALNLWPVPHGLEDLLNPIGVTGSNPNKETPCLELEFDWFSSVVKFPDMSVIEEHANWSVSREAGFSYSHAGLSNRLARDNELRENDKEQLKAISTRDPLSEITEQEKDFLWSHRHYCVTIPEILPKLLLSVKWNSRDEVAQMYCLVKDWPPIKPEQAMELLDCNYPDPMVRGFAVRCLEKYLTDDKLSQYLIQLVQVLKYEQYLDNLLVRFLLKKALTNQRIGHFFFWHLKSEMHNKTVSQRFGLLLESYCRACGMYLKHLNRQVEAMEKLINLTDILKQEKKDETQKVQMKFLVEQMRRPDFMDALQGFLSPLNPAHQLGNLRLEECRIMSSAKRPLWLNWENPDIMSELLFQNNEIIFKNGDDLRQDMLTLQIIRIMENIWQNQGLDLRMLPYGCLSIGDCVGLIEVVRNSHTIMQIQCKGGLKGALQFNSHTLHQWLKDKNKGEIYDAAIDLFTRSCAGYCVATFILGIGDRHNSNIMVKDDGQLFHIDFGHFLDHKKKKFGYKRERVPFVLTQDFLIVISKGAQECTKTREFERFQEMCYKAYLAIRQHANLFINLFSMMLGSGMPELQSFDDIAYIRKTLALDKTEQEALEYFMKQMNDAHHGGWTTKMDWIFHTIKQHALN
Kind of experiment: KinomeScan. It is filed as binding. The note with it: read-out: % Control.

For a further experiment, the target named is T7, SRC (Homo sapiens, UniProt P12931).
T7 construct: purchased DiscoveRx (Fremont, CA)
T7 sequence (P12931 whole entry): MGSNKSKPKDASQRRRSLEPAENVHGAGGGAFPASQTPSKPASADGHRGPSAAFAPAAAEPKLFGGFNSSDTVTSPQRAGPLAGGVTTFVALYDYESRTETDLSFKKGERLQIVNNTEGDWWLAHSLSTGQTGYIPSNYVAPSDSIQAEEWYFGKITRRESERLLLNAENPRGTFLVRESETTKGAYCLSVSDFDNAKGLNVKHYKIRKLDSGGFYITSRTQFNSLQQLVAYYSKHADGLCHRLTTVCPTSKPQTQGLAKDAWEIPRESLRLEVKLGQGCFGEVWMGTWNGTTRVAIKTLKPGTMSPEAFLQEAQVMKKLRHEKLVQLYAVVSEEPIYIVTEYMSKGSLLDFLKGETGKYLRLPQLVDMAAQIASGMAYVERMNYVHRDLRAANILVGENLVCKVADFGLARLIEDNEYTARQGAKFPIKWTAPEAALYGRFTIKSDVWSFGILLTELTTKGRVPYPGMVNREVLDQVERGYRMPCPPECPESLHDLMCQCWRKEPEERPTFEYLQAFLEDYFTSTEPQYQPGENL
Kind of experiment: KinomeScan. It is filed as binding. The note with it: read-out: % Control.

The target of the next experiment is T8, SRPK2 (Homo sapiens, UniProt P78362).
T8 construct: purchased DiscoveRx (Fremont, CA)
T8 sequence (P78362 whole entry): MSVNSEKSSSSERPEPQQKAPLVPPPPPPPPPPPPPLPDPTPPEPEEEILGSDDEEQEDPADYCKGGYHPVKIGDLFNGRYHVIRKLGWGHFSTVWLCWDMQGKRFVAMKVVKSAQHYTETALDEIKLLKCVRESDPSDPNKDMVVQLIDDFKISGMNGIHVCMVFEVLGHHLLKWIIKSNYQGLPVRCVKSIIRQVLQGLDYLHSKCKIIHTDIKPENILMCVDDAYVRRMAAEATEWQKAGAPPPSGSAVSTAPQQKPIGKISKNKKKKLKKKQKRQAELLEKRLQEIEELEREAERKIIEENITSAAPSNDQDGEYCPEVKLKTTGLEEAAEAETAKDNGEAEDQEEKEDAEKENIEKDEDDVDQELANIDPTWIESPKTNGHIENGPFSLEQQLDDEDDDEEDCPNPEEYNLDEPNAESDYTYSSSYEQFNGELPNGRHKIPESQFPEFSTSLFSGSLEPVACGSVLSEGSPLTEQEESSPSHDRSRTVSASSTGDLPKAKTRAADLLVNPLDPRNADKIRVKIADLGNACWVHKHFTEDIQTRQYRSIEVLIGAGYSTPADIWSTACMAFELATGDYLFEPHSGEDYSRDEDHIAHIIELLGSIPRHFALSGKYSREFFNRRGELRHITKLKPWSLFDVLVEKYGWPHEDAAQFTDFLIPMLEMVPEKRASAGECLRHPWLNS
The experiment is described as follows: KinomeScan. It is filed as binding. Conditions: read-out: % Control.

The next experiment concerns the target T9, MRGX2 (Homo sapiens, UniProt Q96LB1).
T9 construct: host or cells: Chem-1 cells expressing Gα15
Kind of experiment: GPCR Profiler. The experiment is classed as cell-based.

The target in a further experiment is T10, P2Y1 (Homo sapiens, UniProt P47900).
T10 construct: host or cells: Chem-1 cells expressing Gα15
T10 sequence (P47900 whole entry, species assumed): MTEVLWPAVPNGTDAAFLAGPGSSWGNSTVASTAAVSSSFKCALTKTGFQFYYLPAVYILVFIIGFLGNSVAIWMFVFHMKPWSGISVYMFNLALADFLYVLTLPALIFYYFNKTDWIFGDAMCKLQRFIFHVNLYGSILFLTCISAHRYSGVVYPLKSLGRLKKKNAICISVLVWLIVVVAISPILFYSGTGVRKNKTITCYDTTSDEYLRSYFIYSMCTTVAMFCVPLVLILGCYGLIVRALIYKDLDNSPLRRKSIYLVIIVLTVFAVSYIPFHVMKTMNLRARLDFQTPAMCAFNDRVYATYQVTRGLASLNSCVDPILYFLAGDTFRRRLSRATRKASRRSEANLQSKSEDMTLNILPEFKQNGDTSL
Kind of experiment: GPCR Profiler. The experiment is classed as cell-based.

The next experiment has as its target T11, TP (Homo sapiens, UniProt P21731).
T11 construct: host or cells: Chem-1 cells with Gα15
Kind of experiment: GPCR Profiler. It is filed as cell-based.

For another experiment, the system named is Daoy. Kind of experiment: Cell Titer-Glo viability, Medulloblastoma. It is filed as cell-based. The note with it: 72 hours. The method, then:
(§1) OGM2 kills wide variety of cancer cell types. Cell sensitivity can be classified in to Very Sensitive (LC50<2 μM), Sensitive (LC50=2 to 10 μM), Mildly Sensitive (LC50>10 μM), and Refractory (no killing at 10 μM). The listed established cell were incubated with OGM2 at 2 μM or 10 μM for 72 hours under standard cell culture conditions, and relative cell number was assessed using Cell Titer-Glo Luminescent Cell Viability Assay (Promega™) following the manufacturer's instructions. Luminescence was determined using a Cytation 5 reader and Gen5 software package (BioTek™).
Cancer cells, which are very sensitive to killing by OGM2 (LCs <2 μM), with reported mRNA expression of GPR68 and the related proton sensing receptor GPR4. LC50's (concentrations causing 50% lethality) were determined using CellTiter-Glo (Promega™, G7570). Cells were plated in 12-well plates (CELLTREAT Scientific Products, 229112) in 1 ml of DMEM with high glucose, GlutaMAX, HEPES, or RPMI 1640 with Penicillin-Streptomycin (ThermoFisher™, 10564029, 11875119 and 15140122) and 10% FBS. Cells were incubated overnight at 37° C. in 5% CO2. Then 1 mL of fresh media was added with DMSO, OGM, or positive control (Erastin; APExBIO Technology, LLC, B1524) and cells incubated for 3 days. On the third day, all media was removed, cells were rinsed with 1×PBS, PBS was removed, and 200 μL of 1× Passive Lysis Buffer (Promega™, E1941) was added to each well. […]. […] Plates were briefly spun down and read on a GloMax-Multi Detection System (Promega™).
The cells listed in the tables above were incubated with OGM2 at 2 μM or 10 μM for 72 hours under standard cell culture conditions, and relative cell number was assessed using Cell Titer-Glo Luminescent Cell Viability Assay (Promega™) following the manufacturer's instructions. Luminescence was determined using a Cytation 5 reader and Gen5 software package (BioTek™). […] The consensus normalized expression value (“nTPM”=normalize transcript per million) was calculated as the maximum nTPM value for each gene in the two data sources.
A general note: Cellular ATP, detected with luciferase, serves as a proxy for viable cell number.

In the next experiment the test system is DU 145. The experiment is described as follows: Cell Titer-Glo viability, Prostate adenocarcinoma. It is filed as cell-based. Conditions: for CC50: Homo sapiens, read-out: LC50 (the source's name). The method, then: as §1
(§2) Cancer cells, which are very sensitive to killing by OGM2 (LCs <2 μM), with reported mRNA expression of GPR68 and the related proton sensing receptor GPR4. LC50's (concentrations causing 50% lethality) were determined using CellTiter-Glo (Promega™, G7570). Cells were plated in 12-well plates (CELLTREAT Scientific Products, 229112) in 1 ml of DMEM with high glucose, GlutaMAX, HEPES, or RPMI 1640 with Penicillin-Streptomycin (ThermoFisher™, 10564029, 11875119 and 15140122) and 10% FBS. Cells were incubated overnight at 37° C. in 5% CO2. Then 1 mL of fresh media was added with DMSO, OGM, or positive control (Erastin; APExBIO Technology, LLC, B1524) and cells incubated for 3 days. On the third day, all media was removed, cells were rinsed with 1×PBS, PBS was removed, and 200 μL of 1× Passive Lysis Buffer (Promega™, E1941) was added to each well. […]. Subsequently, 20 μL of lysate was added to 100 μL CellTiter-Glo™ reagent on a LUMITRAC 200 plate (Greiner™ bio-one, 82050-726). Plates were briefly spun down and read on a GloMax-Multi Detection System (Promega™).
(§3) The cells listed in the tables above were incubated with OGM2 at 2 μM or 10 μM for 72 hours under standard cell culture conditions, and relative cell number was assessed using Cell Titer-Glo Luminescent Cell Viability Assay (Promega™) following the manufacturer's instructions. Luminescence was determined using a Cytation 5 reader and Gen5 software package (BioTek™). RNA expression of GPR68 and GPR4 in the corresponding cancer cell lines are listed, according to the publicly available The Human Protein Atlas version 22.0 and Ensembl version 103.38 (see proteinatlas.org). The consensus normalized expression value (“nTPM”=normalize transcript per million) was calculated as the maximum nTPM value for each gene in the two data sources.

A further experiment relates to PC-3. Kind of experiment: Cell Titer-Glo viability, Prostate adenocarcinoma. It is filed as cell-based. The note with it: for CC50: Homo sapiens, read-out: LC50 (the source's name). The method, then: as §1, §2, §3
The subject of the next experiment is MeWo. Kind of experiment: Scratch assay. It is filed as cell-based, human. Conditions: 20 hours, OGM2 5 uM. How it is done: (§4) Since there are numerous parallels are found between neural crest cells and cancer during migration, we examined whether OGM could inhibit the migration of cells in human melanoma cell lines (Oppitz et al., 2007; Schriek et al., 2005, Sinnberg et al., 2018). […] A2058. MeWo and WM115 cells were grown to confluence and a stripe of cells were denuded with a p200 pipette tip “scratch” and rinsed with PBS. Cells were treated with OGM or DMSO and incubated in low serum media. Imaging was done at 30 minutes after “scratch” and then 20 hours afterwards. Areas were then measured and normalized to the initial area.

For the next experiment, the system named is WM115. The experiment is described as follows: Scratch assay. It is filed as cell-based, human. Conditions: 20 hours, OGM2 5 uM. How it is done: as §4
For experiment [1], the system named is ALI induced by HTV, LPS and both. Kind of experiment: HTV mechanical ventilation / LPS acute lung injury. The experiment is classed as in vivo, C57Bl mice. The text has this: FIG. 38A through FIG. 38D: High-tidal volume (HTV) mechanical ventilation causes ALI and exacerbates ALI caused by LPS (“two-hit”) in C57Bl mice, and OGM2 attenuates these effects. […] Lungs from mice treated with OGM2 are marked with “+”. […] Here, OGM and OGM8345=OGM2.

Each structure is given as a SMILES string. Read-outs that look alike come from different tables or passages of the source.

T11 sequence (P21731 whole entry): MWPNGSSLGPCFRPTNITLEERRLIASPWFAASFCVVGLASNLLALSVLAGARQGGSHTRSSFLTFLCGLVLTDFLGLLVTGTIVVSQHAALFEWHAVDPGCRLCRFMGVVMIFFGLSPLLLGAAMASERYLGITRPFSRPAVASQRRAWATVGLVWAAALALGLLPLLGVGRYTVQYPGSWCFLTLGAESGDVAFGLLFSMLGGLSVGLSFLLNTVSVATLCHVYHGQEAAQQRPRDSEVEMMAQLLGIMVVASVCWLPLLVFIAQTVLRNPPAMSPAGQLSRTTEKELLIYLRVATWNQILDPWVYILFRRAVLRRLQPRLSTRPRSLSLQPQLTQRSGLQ
T9 sequence (Q96LB1 whole entry, species assumed): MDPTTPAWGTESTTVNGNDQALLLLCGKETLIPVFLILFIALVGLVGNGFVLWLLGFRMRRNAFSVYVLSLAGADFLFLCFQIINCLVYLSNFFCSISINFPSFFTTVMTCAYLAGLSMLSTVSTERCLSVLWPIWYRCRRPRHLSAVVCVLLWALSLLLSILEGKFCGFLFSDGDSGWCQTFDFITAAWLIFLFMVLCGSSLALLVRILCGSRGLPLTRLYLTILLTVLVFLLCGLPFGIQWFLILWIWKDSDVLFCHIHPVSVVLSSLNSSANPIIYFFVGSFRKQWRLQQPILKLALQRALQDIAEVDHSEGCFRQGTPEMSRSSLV
T2 sequence (P28482 whole entry): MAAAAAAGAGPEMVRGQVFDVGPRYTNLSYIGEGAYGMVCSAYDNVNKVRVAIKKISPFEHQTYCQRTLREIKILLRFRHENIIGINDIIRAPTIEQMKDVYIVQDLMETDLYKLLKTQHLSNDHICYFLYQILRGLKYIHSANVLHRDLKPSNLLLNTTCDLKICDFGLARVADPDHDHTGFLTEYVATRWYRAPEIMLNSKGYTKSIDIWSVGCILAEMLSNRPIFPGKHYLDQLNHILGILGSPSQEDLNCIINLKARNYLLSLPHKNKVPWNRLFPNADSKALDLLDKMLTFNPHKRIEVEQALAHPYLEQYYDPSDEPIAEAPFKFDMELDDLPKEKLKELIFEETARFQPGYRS

For `CCc1ccc2c(c1)C1(NN=C(c3cccc4ccccc34)S1)C(=O)N2` (stereo not shown) [OGM1, 5-ethyl-5′-naphthalen-1-ylspiro[1H-indole-3,2′-3H-1,3,4-thiadiazole]-2-one], the remaining binding at 10 µM worked out at 100% at ASK2; 77% on ERK2; 91% at FLT3(N841I); 100% at IRAK1; 78% on LKB1; 100% at PIK3CA. Moreover, the remaining binding at 10 µM on SRC turned out to be 95%; at SRPK2, 100%. The Antagonism at MRGX2 (10 uM) is given as 5.1; on P2Y1 (10 uM) it was −6.3; on TP (10 uM), 8.1. In addition, the Agonism at MRGX2 (12.5 uM) is −0.1; on P2Y1 (12.5 uM), 1.7; at TP (12.5 uM), 0.2.
Turning to `CCc1ccc2c(c1)C1(NN=C(c3ccccc3)S1)C(=O)N2` (stereo not shown) [OGM2], the “% Survival 2 μM OGM” value in the experiment with Daoy is listed as 9.0%; in the experiment with DU 145 (72 hours) it was 44.2%; in the experiment with DU 145 (DU 145 cells, 2 μM, 72 hours, Cell Titer-Glo) it was 44.2%; in the experiment with PC-3 (72 hours), 101.3%; with PC-3 (PC-3 cells, 2 μM, 72 hours, Cell Titer-Glo), 101.3%. Moreover, the “% Survival 10 μM OGM” value came out at 10.5% with Daoy; 22.2% with DU 145 (72 hours); 22.2% with DU 145 (DU 145 cells, 10 μM, 72 hours, Cell Titer-Glo); 74.5% in the experiment on PC-3 (72 hours); 74.5% in the experiment with PC-3 (PC-3 cells, 10 μM, 72 hours, Cell Titer-Glo). The CC50 was less than 2 µM in the experiment with Daoy (Homo sapiens, Daoy, read-out: LC50 (the source's name)); less than 2 µM in the experiment on DU 145 (DU-145, 72 hours); less than 2 µM with DU 145 (DU 145 cells, concentration causing 50% lethality); greater than 10 µM with PC-3 (PC-3, 72 hours); greater than 10 µM in the experiment with PC-3 (PC-3 cells, concentration causing 50% lethality). Further, the Class result in the experiment on PC-3 was “Mildly”; in the experiment with PC-3 (Table 13), “Low”. The migration entry in the experiment with MeWo and in the experiment with WM115 was “inhibited migration” throughout. In addition, the “lung vascular leak (Evans blue)” value in experiment [1] (OGM2 40 mg/kg ip 15 minutes before HTV) is on record as “significantly attenuated lung vascular leak”. Besides, the BAL cell count entry in [1] (mouse, in vivo) was “significantly attenuated the rise”. For the same compound, the BAL protein concentration result in experiment [1] (mouse, in vivo) is given as “significantly attenuated the rise”. In addition, the “inflammatory cytokine mRNA expression” value in [1] (mouse, in vivo) is “blunted the rise”.

Values taken from patent US20240327364A1, “THERAPEUTIC TARGETING OF GPR68 TO INDUCE FERROPTOSIS” (University Of Maryland, Baltimore, priority 2023, published 2024).
